According to patent publication US9504729B2, “Antiangiogenic small molecules and methods of use” (The United States of America, as represented by the …, priority 2009, dated 2016):

Test system: angiogenesis genes in dermal microvascular endothelial cells
Test: Real time RT-PCR of angiogenesis gene expression during endothelial tube formation
Type: cell-based
Conditions: 1 μM SM, 24 hours
Procedure: For gene expression studies, three independent experiments were run for each SM tested. 90.000 cells/well (6 wells/treatment) of dermal microvascular endothelial cells (Lonza, Walkersville, Md.) were seeded on polymerized GELTREX™ gel matrix (Invitrogen, Carlsbad, Calif.) in 24 well plates. Wells were immediately treated with the same volume of 1 μM SM or PBS. After 24 hours incubation at 37° C. and 5% CO2, cells were extracted using Cell Recovery Solution (BD Biosciences, San Jose, Calif., Cat. #354253). Total RNA was extracted with the RNeasy Mini Kit (Qiagen, Valencia, Calif., Cat. #74104), and retrotranscribed using […]® First-Strand reverse transcriptase (Invitrogen, Carlsbad, Calif., Cat. #11904-018). The real time PCR reactions were performed in an Opticon 2 cycler (MJ Research, Waltham, Mass.). Amplification was performed in a final volume of 25 μl, containing 2 μl cDNA (1:10 dilution from the reversed transcribed reaction) and 2 μl of primer mixture (10 μM each of forward and reverse primers). Samples were amplified as follows: after initial denaturation at 95 C for 2 minutes, reactions were run for 46 cycles at 95° C. for 30 seconds, 60° C. for 30 seconds, and 72° C. for 45 seconds. Fluorescence was measured in every cycle and a melting curve was run after the PCR by increasing temperature from 50 to 96° C. (in 0.5° C. increments). A defined single peak was obtained for all amplicons, thus confirming the specificity of the amplification.
The genes that were monitored were selected based on their relevance to the angiogenesis process. All experiments were done in triplicate. The results are shown in the volcano plots of FIG. 17. Log 2 fold-change is presented in the X-axis and log 10 P value in the Y-axis.

O=C1C(=Cc2ccccc2)C(NC2CCCCC2)c2ccccc21 (centres unmarked) [compound 150117]
Log2 fold-change of gene expression: 1839: 0.9 | Log2 fold-change of gene expression: 4247: −0.1 | Log2 fold-change of gene expression: 5569: −0.1 | Log2 fold-change of gene expression: 8131: −0.5 | Log2 fold-change of gene expression: 9569: −4.2 | Log2 fold-change of gene expression: 10988: 0.8 | Log2 fold-change of gene expression: 23001: −1.0 | Log2 fold-change of gene expression: 55332: −1.7 | Log2 fold-change of gene expression: 57722: −0.9 | Log2 fold-change of gene expression: 58488: 0.3 | Log2 fold-change of gene expression: 90780: −1.4 | Log2 fold-change of gene expression: 134265: −1.0 | Log2 fold-change of gene expression: AKT1: 1.6 | Log2 fold-change of gene expression: ANGPT1: 1.7 | Log2 fold-change of gene expression: ANGPT2: −1.2 | Log2 fold-change of gene expression: ANGPTL3: 1.8 | Log2 fold-change of gene expression: ANGPTL4: −4.0 | Log2 fold-change of gene expression: ANPEP: −1.7 | Log2 fold-change of gene expression: ANTXR1: −4.2 | Log2 fold-change of gene expression: APOE: −1.0 | Log2 fold-change of gene expression: ARHGEF1: −2.0 | Log2 fold-change of gene expression: Acvrl1: −1.2 | Log2 fold-change of gene expression: Adcy4: −0.5 | Log2 fold-change of gene expression: BAL1: 0.8 | Log2 fold-change of gene expression: BMP1: −0.4 | Log2 fold-change of gene expression: C1orf54: −1.3 | Log2 fold-change of gene expression: CALD1: 1.1 | Log2 fold-change of gene expression: CCL2: 0.9 | Log2 fold-change of gene expression: CCL11: 0.7 | Log2 fold-change of gene expression: CD248: −0.4 | Log2 fold-change of gene expression: CDH5: −1.6 | Log2 fold-change of gene expression: CENTD3: −0.2 | Log2 fold-change of gene expression: CLIC1: 0.0 | Log2 fold-change of gene expression: COL4A3: 2.4 | Log2 fold-change of gene expression: COL18A1: 0.8 | Log2 fold-change of gene expression: COMT: −1.0 | Log2 fold-change of gene expression: CST4: −0.1 | Log2 fold-change of gene expression: CTTNBP2NL: −2.3 | Log2 fold-change of gene expression: CXCL3: 0.8 | Log2 fold-change of gene expression: CXCL5: −3.5 | Log2 fold-change of gene expression: CXCL6: 1.2 | Log2 fold-change of gene expression: CXCL9: 1.2 | Log2 fold-change of gene expression: CXCL10: −1.7 | Log2 fold-change of gene expression: Calcr1: −5.4 | Log2 fold-change of gene expression: Caskin2: −2.7 | Log2 fold-change of gene expression: Ccbp2: 0.4 | Log2 fold-change of gene expression: Cldn5: 0.1 | Log2 fold-change of gene expression: DGKG: 3.4 | Log2 fold-change of gene expression: DKK3: −3.3 | Log2 fold-change of gene expression: DLL4: 5.5 | Log2 fold-change of gene expression: DUT: −0.2 | Log2 fold-change of gene expression: EFNA1: 0.4 | Log2 fold-change of gene expression: EFNA3: −1.8 | Log2 fold-change of gene expression: EFNB2: 0.4 | Log2 fold-change of gene expression: EGF: −2.3 | Log2 fold-change of gene expression: ENG: −0.1 | Log2 fold-change of gene expression: EPHB4: −1.2 | Log2 fold-change of gene expression: EREG: −2.4 | Log2 fold-change of gene expression: ESAM1: −2.6 | Log2 fold-change of gene expression: EXTL3: 0.0 | Log2 fold-change of gene expression: Egf17: −3.3 | Log2 fold-change of gene expression: Ehd4: −0.6 | Log2 fold-change of gene expression: Entpd1: −8.9 | Log2 fold-change of gene expression: Epas1: 0.4 | Log2 fold-change of gene expression: EphB1: 0.7 | Log2 fold-change of gene expression: Erg: −3.2 | Log2 fold-change of gene expression: FGF1: −3.8 | Log2 fold-change of gene expression: FGF2: 0.0 | Log2 fold-change of gene expression: FGFR3: 1.0 | Log2 fold-change of gene expression: FIGF: 2.4 | Log2 fold-change of gene expression: FLT1: −0.5 | Log2 fold-change of gene expression: Fgd5: −1.2 | Log2 fold-change of gene expression: GPCR124: −2.9 | Log2 fold-change of gene expression: GRRP1: 0.0 | Log2 fold-change of gene expression: Grp116: −3.1 | Log2 fold-change of gene expression: HAND2: 1.5 | Log2 fold-change of gene expression: HGF: 1.5 | Log2 fold-change of gene expression: HIF1A: −1.8 | Log2 fold-change of gene expression: HPSE: −0.2 | Log2 fold-change of gene expression: Hspa12b: −3.5 | Log2 fold-change of gene expression: ID1: 0.3 | Log2 fold-change of gene expression: ID3: 0.5 | Log2 fold-change of gene expression: IFNA1: 1.9 | Log2 fold-change of gene expression: IFNB1: 2.1 | Log2 fold-change of gene expression: IFNG: −1.9 | Log2 fold-change of gene expression: IGF1: −0.2 | Log2 fold-change of gene expression: IL1B: 9.5 | Log2 fold-change of gene expression: IL6: 2.2 | Log2 fold-change of gene expression: IL8: 6.0 | Log2 fold-change of gene expression: ITGAV: −1.8 | Log2 fold-change of gene expression: ITGB3: −1.4 | Log2 fold-change of gene expression: Icam1: 0.6 | Log2 fold-change of gene expression: Icam2: 0.0 | Log2 fold-change of gene expression: JAG1: 0.3 | Log2 fold-change of gene expression: KDR: −2.1 | Log2 fold-change of gene expression: Kifc1: −0.1 | Log2 fold-change of gene expression: LAMAS5: −2.2 | Log2 fold-change of gene expression: LECT1: −0.2 | Log2 fold-change of gene expression: LEP: −0.2 | Log2 fold-change of gene expression: Lasts2: 0.3 | Log2 fold-change of gene expression: Lrrk1: −1.8 | Log2 fold-change of gene expression: MDK: −1.5 | Log2 fold-change of gene expression: MMP2: −0.6 | Log2 fold-change of gene expression: MMP9: −0.3 | Log2 fold-change of gene expression: MMP11: −0.2 | Log2 fold-change of gene expression: MRC2: −0.7 | Log2 fold-change of gene expression: Mmm2: −3.4 | Log2 fold-change of gene expression: Myo1b: −2.7 | Log2 fold-change of gene expression: NID1: −5.2 | Log2 fold-change of gene expression: NM023516: 0.6 | Log2 fold-change of gene expression: NRP1: −2.0 | Log2 fold-change of gene expression: NRP2: −3.2 | Log2 fold-change of gene expression: Notch4: −0.7 | Log2 fold-change of gene expression: Npr3: 0.5 | Log2 fold-change of gene expression: PALD: −1.7 | Log2 fold-change of gene expression: PDCD2: −0.9 | Log2 fold-change of gene expression: PDGFA: −0.9 | Log2 fold-change of gene expression: PECAM1: −2.5 | Log2 fold-change of gene expression: PGF: −1.6 | Log2 fold-change of gene expression: PLAU: 0.0 | Log2 fold-change of gene expression: PLG: −3.9 | Log2 fold-change of gene expression: PNMT: −0.4 | Log2 fold-change of gene expression: PROK2: 0.7 | Log2 fold-change of gene expression: PTGS1: 0.3 | Log2 fold-change of gene expression: PTPRCAP: 0.2 | Log2 fold-change of gene expression: Pltp: 0.9 | Log2 fold-change of gene expression: Ptprb: −2.6 | Log2 fold-change of gene expression: Ptprm: −1.4 | Log2 fold-change of gene expression: RAMP2: −4.4 | Log2 fold-change of gene expression: RASD2: −0.1 | Log2 fold-change of gene expression: Rasip1: −1.7 | Log2 fold-change of gene expression: S1PR1: −1.9 | Log2 fold-change of gene expression: SERPINF1: 1.5 | Log2 fold-change of gene expression: SPHK1: 1.2 | Log2 fold-change of gene expression: STAB1: −0.9 | Log2 fold-change of gene expression: Sdc4: 0.2 | Log2 fold-change of gene expression: Sdpr: 0.0 | Log2 fold-change of gene expression: Slc43a3: 0.0 | Log2 fold-change of gene expression: Slco2a1: −2.9 | Log2 fold-change of gene expression: TEK: 0.7 | Log2 fold-change of gene expression: TGFA: 5.3 | Log2 fold-change of gene expression: TGFB1: −1.3 | Log2 fold-change of gene expression: TGFB2: 1.6 | Log2 fold-change of gene expression: TGFBR1: 1.2 | Log2 fold-change of gene expression: THBS1: −0.6 | Log2 fold-change of gene expression: THBS2: 0.9 | Log2 fold-change of gene expression: THY1: −12.7 | Log2 fold-change of gene expression: TIMP1: −0.7 | Log2 fold-change of gene expression: TIMP2: −0.8 | Log2 fold-change of gene expression: TIMP3: −2.7 | Log2 fold-change of gene expression: TNF: 2.4 | Log2 fold-change of gene expression: TNS1: −0.9 | Log2 fold-change of gene expression: TNS3: 0.6 | Log2 fold-change of gene expression: TRA2B: −0.2 | Log2 fold-change of gene expression: TYMP: −1.1 | Log2 fold-change of gene expression: VEGFA: −0.3 | Log2 fold-change of gene expression: VEGFC: 2.0 | Log2 fold-change of gene expression: VGLL4: −3.5 | Log2 fold-change of gene expression: Vwf: −3.7 | Log2 fold-change of gene expression: copa: 0.0 | Log2 fold-change of gene expression: itbp4: −2.5 | Log2 fold-change of gene expression: ralb: −0.7 | Log2 fold-change of gene expression: stard9: 0.1 | Log2 fold-change of gene expression: B2M (1st listing (r49)): 2.8 | Log2 fold-change of gene expression: HPRT1 (1st listing (r50)): −0.4 | Log2 fold-change of gene expression: RPL13A (1st listing (r51)): −0.8 | Log2 fold-change of gene expression: GADPH (1st listing (r52)): −1.3 | Log2 fold-change of gene expression: ACTB (1st listing (r53)): −0.9 | Log2 fold-change of gene expression: PLXDC1 (1st listing (r74)): −3.2 | Log2 fold-change of gene expression: TNFAIP2 (1st listing (r91)): −0.6 | Log2 fold-change of gene expression: Robo4 (1st listing (r95)): −0.2 | Log2 fold-change of gene expression: 151516 (1st listing (r134)): 0.0 | Log2 fold-change of gene expression: TNFAIP2 (2nd listing (r92)): 2.7 | Log2 fold-change of gene expression: B2M (2nd listing (r97)): −1.2 | Log2 fold-change of gene expression: HPRT1 (2nd listing (r98)): 0.6 | Log2 fold-change of gene expression: RPL13A (2nd listing (r99)): 0.1 | Log2 fold-change of gene expression: GADPH (2nd listing (r100)): −0.1 | Log2 fold-change of gene expression: ACTB (2nd listing (r101)): −0.6 | Log2 fold-change of gene expression: PLXDC1 (2nd listing (r104)): −0.6 | Log2 fold-change of gene expression: 151516 (2nd listing (r139)): 0.0 | Log2 fold-change of gene expression: Robo4 (2nd listing (r188)): −0.3 | Log2 fold-change of gene expression: B2M (3rd listing (r145)): −0.7 | Log2 fold-change of gene expression: HPRT1 (3rd listing (r146)): 1.1 | Log2 fold-change of gene expression: RPL13A (3rd listing (r147)): 0.6 | Log2 fold-change of gene expression: GADPH (3rd listing (r148)): −0.5 | Log2 fold-change of gene expression: ACTB (3rd listing (r149)): −0.5 | Log2 fold-change of gene expression: B2M (4th listing (r193)): −0.8 | Log2 fold-change of gene expression: HPRT1 (4th listing (r194)): 0.4 | Log2 fold-change of gene expression: RPL13A (4th listing (r195)): 0.2 | Log2 fold-change of gene expression: GADPH (4th listing (r196)): −0.5 | Log2 fold-change of gene expression: ACTB (4th listing (r197)): −0.2
